Where a name gives a salt, the structure may show the parent alone.
The molecules below were run against recombinant human AMPK complex 1 (containing α1β1γ1) (Homo sapiens, UniProt Q13131+Q9Y478) (assay: […] (in vitro AMPK activation assay)). Details: not given.
Format: biochemical
Experimental: Recombinant viruses were generated by cotransfection of AMPK/pBacPak9 clones with Baculogold baculovirus DNA (Pharmingen) in spodoptera frugiperda 21 cells according to the manufacturer's instructions. Each round of virus amplification was performed for 5 days in Grace's medium containing 10% serum. Virus that had been subjected to three rounds of amplification was used for all protein production procedures. To express the AMPK complex, sf21 cells were adapted to serum free medium (SF900 II, Invitrogen) by sequential dilution from serum containing stocks into SF900 II medium and maintained in shaker flasks at 90 rpm at 27° C. The recombinant AMPK enzyme complex was produced by triple infection, one recombinant virus for each of the subunits, in sf21 cells under serum free conditions. […] Cells were harvested by centrifugation at 10,000×g for 15 minutes after 72 hours of infection with viruses. The insect cell pellet from 2 liters of culture was resuspended in 50 ml lysis buffer (20 mM Tris-HCl, 50 mM NaCl, 50 mM NaF, 30 mM Na PPi, 0.25 M sucrose, 10 mM ZnCl2, 2 mM DTT, 0.4 mg/ml digitonin) and subjected to two cycles of freeze-thaw lysis in a dry-ice ethanol bath. Insoluble material was removed by centrifugation at 10,000×g and the supernatant was fractionated with use of polyethylene glycol (PEG).
The total in vitro AMPK activation assay volume is 50 μl in a 96-well plate. […] The reaction was initiated with addition of the enzyme. After 30-minute incubation at 30° C., the reaction was stopped by addition of 80 μl 1% H3PO4. Aliquots (100 μl) were transferred to 96-well MultiScreen plates (MAPHNOB50; Millipore Corp., Bedford, Mass., USA). The plate was washed three times with 1% H3PO4 followed by detection in a Top-count. The counts per minute from the basal activity (the reaction without activator) was subtracted from each well and the data were expressed as % maximum AMP activation followed by EC50 calculation.

recombinant human AMPK complex 1 (containing α1β1γ1), sequence (Q13131 whole entry): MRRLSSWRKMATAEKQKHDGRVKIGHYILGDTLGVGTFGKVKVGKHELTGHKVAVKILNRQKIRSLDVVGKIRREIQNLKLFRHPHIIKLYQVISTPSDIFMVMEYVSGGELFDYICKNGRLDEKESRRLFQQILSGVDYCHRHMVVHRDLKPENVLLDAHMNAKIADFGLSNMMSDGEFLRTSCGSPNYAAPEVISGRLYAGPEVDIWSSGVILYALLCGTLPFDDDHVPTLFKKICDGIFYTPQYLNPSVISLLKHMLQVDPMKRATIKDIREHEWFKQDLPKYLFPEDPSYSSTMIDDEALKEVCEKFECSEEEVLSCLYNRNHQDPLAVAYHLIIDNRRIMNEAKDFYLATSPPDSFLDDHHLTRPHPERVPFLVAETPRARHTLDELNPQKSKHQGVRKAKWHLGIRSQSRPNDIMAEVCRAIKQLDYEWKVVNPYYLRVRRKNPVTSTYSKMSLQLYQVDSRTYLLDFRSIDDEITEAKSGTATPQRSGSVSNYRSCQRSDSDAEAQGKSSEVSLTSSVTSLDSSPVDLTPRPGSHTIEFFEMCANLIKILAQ
recombinant human AMPK complex 1 (containing α1β1γ1), sequence (Q9Y478 whole entry): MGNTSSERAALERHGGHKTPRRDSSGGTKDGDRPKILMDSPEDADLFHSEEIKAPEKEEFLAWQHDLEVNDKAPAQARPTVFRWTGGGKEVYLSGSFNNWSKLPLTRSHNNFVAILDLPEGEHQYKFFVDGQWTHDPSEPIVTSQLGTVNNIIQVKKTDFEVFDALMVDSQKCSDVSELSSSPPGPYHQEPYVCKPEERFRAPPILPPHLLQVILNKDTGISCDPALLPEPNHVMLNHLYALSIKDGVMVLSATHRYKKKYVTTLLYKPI
recombinant human AMPK complex 1 (containing α1β1γ1), sequence (P54619 whole entry partner): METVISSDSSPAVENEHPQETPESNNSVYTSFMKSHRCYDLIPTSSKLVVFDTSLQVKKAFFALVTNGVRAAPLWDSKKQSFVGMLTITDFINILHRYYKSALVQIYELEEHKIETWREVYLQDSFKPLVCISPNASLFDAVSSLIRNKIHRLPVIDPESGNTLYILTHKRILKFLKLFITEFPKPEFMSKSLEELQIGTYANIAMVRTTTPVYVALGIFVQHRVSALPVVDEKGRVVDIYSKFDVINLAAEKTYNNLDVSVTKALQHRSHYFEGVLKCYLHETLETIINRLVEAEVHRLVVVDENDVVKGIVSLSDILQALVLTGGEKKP

Structure (SMILES) | EC50 [nM]
Cc1ccc(Oc2nc3cc(-c4ccc(-c5ccccc5)cc4)c(Cl)cc3[nH]2)cc1C(=O)O [Example 1, 5-[(5-biphenyl-4-yl-6-chloro-1H-benzimidazol-2-yl)oxy]-2-methylbenzoic acid] | 8

Same assay, conditions: read-out: % Maximum AMP Activation of human AMPK Complex 1

Structure (SMILES) | Emax [%]
Cc1ccc(Oc2nc3cc(-c4ccc5c(ccn5C(C)C)c4)c(Cl)cc3[nH]2)cc1C(=O)O [Example 253, 5-[6-Chloro-5-(1-isopropyl-1H-indol-5-yl)-1H-benzoimidazol-2-yloxy]-2-methyl-benzoic acid] | > 80

Same assay, conditions: read-out: % Maximum AMP Activation of human AMPK Complex 1, recombinant human AMPK complex 1 (α1β1γ1); basal activity subtracted

Structure (SMILES) | Emax [%]
Cc1ccc(Oc2nc3cc(-c4ccc(C(F)(F)F)cc4)c(Cl)cc3[nH]2)cc1C(=O)O [Example 337, Ammonium 5-({6-chloro-5-[4-(trifluoromethyl)phen-yl]-1H-benzimidazol-2-yl}oxy)-2-methylbenzoate] | > 80

Same assay, conditions: recombinant human AMPK complex 1 (α1β1γ1); basal activity subtracted; read-out: % Maximum AMP Activation of human AMPK Complex 1

Structure (SMILES) | Emax [%]
Cc1ccc(Oc2nc3cc(-c4ccc(CN(C)C)cc4)c(Cl)cc3[nH]2)cc1C(=O)O [Example 294, {4-[2-(3-carboxy-4-methylphenoxy)-6-chloro-1H-benzimidazol-5-yl]phenyl}-N,N-dimethylmethanaminium trifluoroacetate] | > 80
Cc1ccc(Oc2nc3cc(-c4cn[nH]c4)c(Cl)cc3[nH]2)cc1C(=O)O [Example 160, 5-[6-Chloro-5-(1H-pyrazol-4-yl)-1H-benzoimidazol-2-yloxy]-2-methyl-benzoic acid] | > 80
Cc1ccc(Oc2nc3cc(-c4ccc5c(c4)CC(=O)N5)c(Cl)cc3[nH]2)cc1C(=O)O [Example 307, 5-[6-Chloro-5-(2-oxo-2,3-dihydro-1H-indol-5-yl)-1H-benzoimidazol-2-yloxy]-2-methyl-benzoic acid] | > 80
COC(=O)c1cc(Oc2nc3cc(C#Cc4ccccc4OC)c(Cl)cc3[nH]2)ccc1C [Example 107, 5-[6-Chloro-5-(2-methoxy-phenylethynyl)-1H-benzoimidazol-2-yloxy]-2-methyl-ester] | > 80
COC(=O)c1cc(Oc2nc3cc(C#Cc4cccnc4)c(Cl)cc3[nH]2)ccc1C [Example 133, 5-(6-Chloro-5-pyridin-3-ylethynyl-1H-benzoimidazol-2-yloxy)-2-methyl-benzoic acid methyl ester] | > 80
Cc1ccc(Oc2nc3cc(-c4ccc5[nH]c(-c6ccccc6)cc5c4)c(Cl)cc3[nH]2)cc1C(=O)O [Example 278, 5-[6-Chloro-5-(2-phenyl-1H-indol-5-yl)-1H-benzoimidazol-2-yloxy]-2-methyl-benzoic acid] | > 80
CC(=O)NS(=O)(=O)c1cccc(Oc2nc3cc(-c4ccc(-c5ccccc5)cc4)c(Cl)cc3[nH]2)c1 [Example 206, N-Acetyl-3-(5-biphenyl-4-yl-6-chloro-1H-benzoimidazol-2-yloxy)-benzenesulfonamide] | > 80
Cc1cc(Oc2nc3cc(-c4ccc(-c5ccccc5O)cc4)c(Cl)cc3[nH]2)cc(C(=O)O)c1 [Example 53, 3-[6-Chloro-5-(2′-hydroxy-biphenyl-4-yl)-1H-benzoimidazol-2-yloxy]-5-methyl-benzoic acid] | > 80
O=C(O)c1cccc(Sc2nc3cc(-c4cccs4)c(Cl)cc3[nH]2)c1 [Example 65, 3-{[6-chloro-5-(2-thienyl)-1H-benzimidazol-2-yl]thio}benzoic acid] | > 80
Cc1ccc(Oc2nc3cc(-c4ccc5c(c4)c(C)cn5C)c(Cl)cc3[nH]2)cc1C(=O)O [Example 288, 5-[6-Chloro-5-(1,3-dimethyl-1H-indol-5-yl)-1H-benzoimidazol-2-yloxy]-2-methyl-benzoic acid] | > 80
COc1ccc2cc(C#Cc3cc4nc(Oc5ccc(C)c(C(=O)O)c5)[nH]c4cc3Cl)ccc2c1 [Example 94, 5-[6-Chloro-5-(6-methoxy-naphthalen-2-ylethynyl)-1H-benzoimidazol-2-yloxy]-2-methyl-benzoic acid] | > 80
Cc1ccc(Oc2nc3cc(-c4ccc(N5CCNCC5)nc4)c(Cl)cc3[nH]2)cc1C(=O)O [Example 174, 5-[6-Chloro-5-(6-piperazin-1-yl-pyridin-3-yl)-1H-benzoimidazol-2-yloxy]-2-methyl-benzoic acid] | > 80
CC(=O)N1CCc2cc(-c3cc4nc(Oc5ccc(C)c(C(=O)O)c5)[nH]c4cc3Cl)ccc21 [Example 306, 5-[5-(1-Acetyl-2,3-dihydro-1H-indol-5-yl)-6-chloro-1H-benzoimidazol-2-yloxy]-2-methyl-benzoic acid] | > 80
COC(=O)c1cc(Oc2nc3cc(C#Cc4cccc(OC)c4)c(Cl)cc3[nH]2)ccc1C [Example 109, 5-[6-Chloro-5-(3-methoxy-phenylethynyl)-1H-benzoimidazol-2-yloxy]-2-methyl-benzoic acid methyl ester] | > 80
O=C(O)c1cc(O)cc(Oc2nc3cc(-c4ccc(-c5ccccc5)cc4)c(Cl)cc3[nH]2)c1 [Example 35, 3-(5-Biphenyl-4-yl-6-chloro-1H-benzoimidazol-2-yloxy)-5-hydroxy-benzoic acid] | > 80
O=C(O)C1(c2ccc(Oc3nc4cc(-c5ccc(-c6ccccc6)cc5)c(Cl)cc4[nH]3)cc2)CC1 [Example 7, 1-[4-(5-Biphenyl-4-yl-6-chloro-1H-benzoimidazol-2-yloxy)-phenyl]-cyclopropanecarboxylic acid] | > 80
Cc1ccc(Oc2nc3cc(C#Cc4ccc(C(O)C5CC5)cc4)c(Cl)cc3[nH]2)cc1C(=O)O (centres unmarked) [Example 88, 5-{6-Chloro-5-[4-(cyclopropyl-hydroxy-methyl)-phenylethynyl]-1H-benzoimidazol-2-yloxy}-2-methyl-benzoic acid] | > 80
Cc1ccc(Oc2nc3cc(-c4cccc5c4ccn5C)c(Cl)cc3[nH]2)cc1C(=O)O [Example 283, 5-[6-Chloro-5-(1-methyl-1H-indol-4-yl)-1H-benzoimidazol-2-yloxy]-2-methyl-benzoic acid] | > 80
Cc1ccc(Oc2nc3cc(-c4ccc5c(c4)CNC5)c(Cl)cc3[nH]2)cc1C(=O)O [Example 301, 5-[2-(3-carboxy-4-methylphenoxy)-6-chloro-1H-benzimidazol-5-yl]-2,3-dihydro-1H-isoindolium trifluoroacetate] | > 80
CCCc1ccc(-c2cc3nc(Oc4ccc(C)c(C(=O)O)c4)[nH]c3cc2Cl)cc1 [Example 347, 2-(3-carboxy-4-methylphenoxy)-6-chloro-5-(4-propylphenyl)-1H-3,1-benzimidazol-3-ium trifluoroacetate] | > 80
COc1ccc2cc(-c3cc4nc(Oc5ccc(CC(=O)O)cc5)[nH]c4cc3Cl)ccc2c1 [Example 245, {4-[6-Chloro-5-(6-methoxy-naphthalen-2-yl)-1H-benzoimidazol-2-yloxy]-phenyl}-acetic acid] | > 80
Cc1ccc(Oc2nc3cc(-c4ccc(C(C)C)c5c4ccn5C)c(Cl)cc3[nH]2)cc1C(=O)O [Example 272, 5-[6-Chloro-5-(7-isopropyl-1-methyl-1H-indol-4-yl)-1H-benzoimidazol-2-yloxy]-2-methyl-benzoic acid] | > 80
Cc1[nH]c2ccc(Oc3nc4cc(-c5ccc(-c6ccccc6)cc5)c(Cl)cc4[nH]3)cc2c1C(=O)O [Example 5, 5-(5-Biphenyl-4-yl-6-chloro-1H-benzoimidazol-2-yloxy)-2-methyl-1H-indole-3-carboxylic acid] | > 80
Cc1cc(Oc2nc3cc(-c4ccc(-c5ccccc5)cc4)c(Cl)cc3[nH]2)cc(C(=O)O)c1C [Example 11, 5-(5-Biphenyl-4-yl-6-chloro-1H-benzoimidazol-2-yloxy)-2,3-dimethyl-benzoic acid] | > 80
COc1ccc(-c2ccc(-c3cc4nc(Oc5ccc(C)c(C(=O)O)c5)[nH]c4cc3Cl)cc2)cc1 [Example 172, 5-[6-Chloro-5-(4′-methoxy-biphenyl-4-yl)-1H-benzoimidazol-2-yloxy]-2-methyl-benzoic acid] | > 80
Cc1ccc(Oc2nc3cc(-c4ccc5c(c4)CCC5=O)c(Cl)cc3[nH]2)cc1C(=O)O [Example 266, 5-[6-Chloro-5-(1-oxo-indan-5-yl)-1H-benzoimidazol-2-yloxy]-2-methyl-benzoic acid] | > 80
N#Cc1ccc(Oc2nc3cc(-c4ccc(-c5ccccc5)cc4)c(Cl)cc3[nH]2)cc1C#N [Example 101, 4-(5-Biphenyl-4-yl-6-chloro-1H-benzoimidazol-2-yloxy)-phthalonitrile] | > 80
CS(=O)(=O)NC(=O)c1cccc(Oc2nc3cc(-c4ccc(-c5ccccc5)cc4)c(Cl)cc3[nH]2)c1 [Example 225, N-[3-(5-Biphenyl-4-yl-6-chloro-1H-benzoimidazol-2-yloxy)-benzoyl]-methanesulfonamide] | > 80

Same assay, conditions: recombinant human AMPK complex 1 (α1β1γ1); read-out: EC50

Structure (SMILES) | EC50 [nM]
Cc1ccc(Oc2nc3cc(-c4ccc(-c5ccccc5O)cc4)c(F)cc3[nH]2)cc1C(=O)O [Example 232, 5-{[6-fluoro-5-(2′-hydroxybiphenyl-4-yl)-1H-benzimidazol-2-yl]oxy}-2-methylbenzoic acid] | 1

Reference: US8394969B2, “Cyclic benzimidazole derivatives useful as anti-diabetic agents” (Merck Sharp & Dohme Corp., priority 2008, dated 2013)
